{
  "source": "paper PMC11562385",
  "about": "(RSC Chemical Biology, 2024)",
  "key": {"h-PBMCs": {"test_system": "h-PBMCs", "assay": "Ex vivo cytokine secretion assay, healthy PBMCs", "type": "cell-based, human", "details": "h-PBMCs reactivated with anti-CD2/28, 6 h incubation, n = 3", "method": "Then, an ex vivo immune cell culture system using h-PBMCs and exhausted PBMCs from a melanoma patient (e-PBMCs) was used to determine the efficacy of selected ADAPTin peptides on T-effector cells (Fig. 6).[91,92] T-cell exhaustion typically leads to a reduction in cytokine release, cytotoxic activity, as well as slower T-cell proliferation. […] Cytokines concentrations measured at 72 h post-treatment were in most cases over the detection limit range further indicating the effectiveness of our compounds over time.\nNon-covalent ADAPTin2c/2p were used as negative control. (A) Levels of inflammatory cytokines measured by flow-cytometry (FACS) after 6 h incubation with electrophilic ADAPTins. Error bars indicate the mean ± SD, (n = 3). (B) Rescue of exhausted PBMCs from a melanoma patient. Levels of inflammatory cytokines and granule-associated proteins released (6 h) measured by FACS (healthy and untreated exhausted PBMCs: h-/e-PBMCs used as positive and negative controls respectively). Error bars indicate the avg ± SD, (n = 2).\nEx Vivo Cytokine Secretion Assay.\nNormal PBMCs (from healthy donor) and exhausted PBMCs isolated from the blood sample of a melanoma patient were activated for 48 h before using anti-CD2/28 monoclonal antibodies with IL-2 (2 ng/mL) as mentioned above. […] Samples were transferred to a 96-well plate to read on a flow cytometer. […]"}, "PD1:PDL1 interaction": {"target": "T1, PD1:PDL1 interaction (Homo sapiens, UniProt Q15116)", "T1 construct": "purchased BPS Bioscience 72005", "T1 sequence (Q15116 25-167 limits assumed)": "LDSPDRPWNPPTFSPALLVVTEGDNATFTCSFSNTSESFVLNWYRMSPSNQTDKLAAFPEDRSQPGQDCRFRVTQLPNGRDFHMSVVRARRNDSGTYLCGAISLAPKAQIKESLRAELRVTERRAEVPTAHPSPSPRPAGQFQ", "assay": "PD1/PDL1 immunoblocking ELISA (BPS Bioscience kit cat # 72005)", "type": "binding"}},
  "note": "pEC50: −log10 of the molar value. Peptide text beside a SMILES is read from it.",
  "data": [
    {"smiles": "CSCC[C@H](NC(=O)[C@H](CC(=O)O)NC(=O)[C@H](Cc1ccccc1)NC(=O)[C@H](CCCNC(=N)N)NC(=O)[C@H](Cc1ccc(O)cc1)NC(=O)[C@H](CC(=O)O)NC(=O)[C@H](CCCNC(=N)N)NC(=O)[C@H](CCCNC(=N)N)NC(=O)[C@H](C)NC(=O)[C@@H](NC(=O)[C@H](Cc1c[nH]c2ccccc12)NC(=O)[C@@H](N)CCCNC(=N)N)C(C)C)C(=O)NCC(=O)N[C@@H](Cc1ccccc1)C(=O)N[C@@H](CC(=O)O)C(=O)N[C@@H](Cc1ccc(O)cc1)C(=O)N[C@@H](Cc1c[nH]c2ccccc12)C(=O)N[C@H](C(=O)N[C@@H](Cc1c[nH]c2ccccc12)C(=O)N[C@@H](CCC(=O)O)C(=O)O)C(C)C", "note": "[2c] (H-RWVARRDYRFDMGFDYWVWE-OH)", "values": [
      {"measurement": "increase in TNF-α, IFN-γ and perforin levels", "setting": "h-PBMCs", "value": "no detectable activity"},
      {"measurement": "pEC50", "setting": "PD1:PDL1 interaction; ELISA, mean of three independent experiments, read-out: EC50 Value", "value": 6.60},
      {"measurement": "LE (ligand efficiency)", "setting": "PD1:PDL1 interaction; LE = -RTln(EC50)/HA, HA = non-hydrogen atoms omitting the strap (RWV•••VWE)", "value": 0.07}
    ]}
  ]
}
